These results are taken from patent publication US20210155671A1 (priority 2019, published 2021).

For assay [1], the system named is Daudi. The assay is classed as cell-based.
Assay [2] relates to HBL-1. In kind it is cell-based.
Assay [3] relates to SU-DHL-4. The assay is classed as cell-based.
Assay [4] has as its system Raji. The assay is classed as cell-based.
For assay [5], the system named is Burkitt's lymphoma (ST-486) cells. In kind it is cell-based. Conditions: 72 hours. The procedure:
The cytotoxicity of Molecule 001 in combination with lenalidomide was also tested in Burkitt's lymphoma (ST-486) cells. The cells were incubated with Molecule 001 only, lenalidomide only, or a combination of Molecule 001 and lenalidomide. Cell viability was measured 72 hours after treatment using the Promega® Cell TiterGlo® assay (FIG. 19E).

For assay [6], the system named is lymphoma (Daudi) cells. In kind it is cell-based. The procedure: The cytotoxicity of Molecule 001 in combination with lenalidomide was also tested in vitro, in lymphoma (Daudi) cells. […] Following this, Molecule 001 was added and viability was measured after an additional 3 days, using the Promega® Cell Titer-Gb® assay (FIG. 19C).
Assay [7] has as its target CD20 (Homo sapiens, UniProt P11836). The following applies: at 37° C.; cited from earlier work.

Chain of CD20 (P11836 whole entry): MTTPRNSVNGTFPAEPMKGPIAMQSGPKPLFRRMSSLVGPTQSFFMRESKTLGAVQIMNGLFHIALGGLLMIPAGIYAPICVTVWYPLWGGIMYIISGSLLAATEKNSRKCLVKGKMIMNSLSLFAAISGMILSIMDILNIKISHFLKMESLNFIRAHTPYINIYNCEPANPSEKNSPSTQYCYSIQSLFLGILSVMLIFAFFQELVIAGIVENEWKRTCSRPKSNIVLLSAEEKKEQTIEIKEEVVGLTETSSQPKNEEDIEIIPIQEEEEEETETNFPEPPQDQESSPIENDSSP

For the compound `Cn1c(CCCC(=O)O)nc2cc(N(CCCl)CCCl)ccc21` [Bendamustine], the “In vitro responses to Molecule 001 in combination with chemotherapy” value (“In vitro responses” below) in assay [1], in assay [2] and in assay [3] was “Synergistic” in each case.

As to `N.N.[Cl][Pt][Cl]` [Cisplatin], the entries for the “In vitro responses” value in assay [1], in assay [4] and in assay [3] were “Mixed”, “Synergistic” and “Mixed”, respectively.

For `COc1cccc2c1C(=O)c1c(O)c3c(c(O)c1C2=O)C[C@@](O)(C(=O)CO)C[C@@H]3O[C@H]1C[C@H](N)[C@H](O)[C@H](C)O1` [Doxorubicin], the “In vitro responses” value is “Mixed” in assay [1], “Synergistic” in assay [2] and “Synergistic” in assay [4].

In the case of `Nc1ccn([C@@H]2O[C@H](CO)[C@@H](O)C2(F)F)c(=O)n1` [Gemcitabine], the “In vitro responses” value in assay [4] is “Synergistic”.

In the case of `CC[C@]1(O)C[C@H]2CN(CCc3c([nH]c4ccccc34)[C@@](C(=O)OC)(c3cc4c(cc3OC)N(C=O)[C@H]3[C@@](O)(C(=O)OC)[C@H](OC(C)=O)[C@]5(CC)C=CCN6CC[C@]43[C@@H]65)C2)C1` [Vincristine], the “In vitro responses” value in assay [4] is reported as “Synergistic”.

Take `Nc1cccc2c1CN(C1CCC(=O)NC1=O)C2=O` (stereo not shown) [lenalidomide]: in assay [5], the “effect of lenalidomide on the activity of Molecule 001” value is given as “no effect on the activity of Molecule 001”. Besides, the “effect of lenalidomide on cell viability” value in assay [5] (concentrations used in this assay) is “little effect on cell viability”. Further, the “toxicity of Molecule 001 on cells pre-treated with lenalidomide (isobologram)” value in assay [6] (Daudi cells pre-treated with lenalidomide for 24 hours, then Molecule 001, viability after additional 3 days) is “synergistic toxicity”. The “potency of the combination of Molecule 001 and LEN against lymphoma cells” value in assay [6] (versus either agent alone) is on record as “significantly greater potency against lymphoma cells than either agent alone”.

Take rituximab: the “time to maximal cellular internalization” value in assay [7] is 16 to 18 h.
